Experiments:
[1] = target: T1, human leukocyte elastase (HLE) (Homo sapiens, UniProt P08246); experiment: Inactivation of human leukocyte elastase (kobs/[I]); type: biochemical
T1 construct: purchased Elastin Products Co., Owensville, Mo
T1 sequence (P08246 30-247 limits assumed): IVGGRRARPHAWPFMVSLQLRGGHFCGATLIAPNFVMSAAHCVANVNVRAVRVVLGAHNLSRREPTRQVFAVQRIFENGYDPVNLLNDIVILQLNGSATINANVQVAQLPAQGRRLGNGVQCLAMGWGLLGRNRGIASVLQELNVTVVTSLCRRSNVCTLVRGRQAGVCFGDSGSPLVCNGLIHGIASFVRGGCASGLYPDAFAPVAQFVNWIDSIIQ
From the text: (§1) An in vitro assay can be used to screen compounds of the invention for the ability to reduce or inhibit serine proteinase activity. The human leukocyte elastase (HLE), cathepsin G (Cath G), and proteinase-3 assays have each been described (Groutas et al., J. Med. Chem. 32:1607-1611, 1989; Groutas et al., Arch. Biochem. Biophys. 294:144-146, 1992; Kao et al., J. Clin. Invest. 82:1963-1973, 1988, each incorporated by reference herein). The pseudo first-order inactivation rate constants (kobs) were obtained from plots of ln(vt /vo) vs t, and expressed in terms of the apparent second-order inactivation rate constant, kobs /[I] M^-1 s^-1 (Tables 1-7). Tables 1-7 disclose the activity of preferred compounds of the invention as inhibitors of HLE and Cath G. Table 7 discloses the activity of Compounds 4A (C) and 3E (D) as inhibitors of Proteinase-3 activity. Compounds (A) and (B) have been disclosed previously (Groutas et al., Bioorganic and Med. Chem. 1(4):273-277, 1993; Groutas et al., J. Med. Chem. 36:3178, 1993).
XII. Materials: Human leukocyte elastase was purchased from Elastin Products Co., Owensville, Mo.
(§2) Human leukocyte cathepsin G was obtained from Athens Research and Technology, Athens, Ga. Methoxysuccinyl Ala-Ala-Pro-Val p-nitroanilide and methoxysuccinyl Ala-Ala-Pro-Phe p-nitroanilide were purchased from Sigma Chemicals Co., St. Louis, Mo. Baker-analyzed 60-200 mesh silica gel was used for flash chromatography.

cathepsin G (Cath G) = target: T2, cathepsin G (Cath G) (Homo sapiens, UniProt P08311); experiment: Inactivation of human leukocyte cathepsin G (kobs/[I]); type: biochemical; settings: for kinact/KI: pH 7.5
T2 construct: purchased Athens Research and Technology, Athens, Ga
T2 sequence (P08311 21-244 limits assumed): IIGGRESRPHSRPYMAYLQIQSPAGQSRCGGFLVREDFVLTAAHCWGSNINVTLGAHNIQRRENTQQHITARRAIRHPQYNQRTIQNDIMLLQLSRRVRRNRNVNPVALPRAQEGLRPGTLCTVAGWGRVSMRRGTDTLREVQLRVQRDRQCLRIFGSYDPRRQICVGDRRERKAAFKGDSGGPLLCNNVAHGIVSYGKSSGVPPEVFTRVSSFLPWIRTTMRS
Experimental: Human leukocyte cathepsin G (1.33 uM) is incubated with compound 8 (133 uM) (a) or compound 10 (13.3 uM) (b) in 0.1M HEPES buffer, pH 7.5, and 10% DMSO. Aliquots were withdrawn at different time intervals and assayed for enzymatic activity using methoxysuccinyl Ala-Ala-Pro-Phe p-nitroanilide.
Human leukocyte cathepsin G (1.48 μM was incubated with inhibitor 5A (1.48 μM in 0.1M HEPES buffer, pH 7.5, and 1% DMSO. Aliquots were withdrawn at different time intervals and assayed for enzymatic activity using methoxysuccinyl Ala-Ala-Pro-Phe p-nitroanilide.
as §1, §2

O=C1C(Cc2ccccc2)CS(=O)(=O)N1CS(=O)(=O)c1ccccc1 (centres unmarked) [Compound 10, 4-Benzyl-2-(1-phenylsulfonylmethyl)isothiazolidin-3-one 1,1-dioxide]
HLE % inhibition ([1]; Table 1B footnote, [I]/[E] ratio of 200, 10 minute incubation period): 12%
time-dependent loss of serine protease activity (cathepsin G (Cath G); FIG. 5, Cath G 1.33 uM, inhibitor 13.3 uM, 0.1M HEPES pH 7.5, 10% DMSO): time-dependent loss of serine protease activity
kinact/KI (cathepsin G (Cath G); Table 1B): 960 M⁻¹ s⁻¹

O=C(CCc1ccccc1)OCN1C(=O)C(Cc2ccccc2)CS1(=O)=O (centres unmarked) [Compound 2C]
kinact/KI ([1]; Table 4): 680 M⁻¹ s⁻¹
kinact/KI (cathepsin G (Cath G); Table 4): 640 M⁻¹ s⁻¹

O=C(/C=C/c1ccccc1)OCN1C(=O)C(Cc2ccccc2)CS1(=O)=O (centres unmarked) [Compound 1C]
kinact/KI ([1]; Table 4): 280 M⁻¹ s⁻¹
kinact/KI (cathepsin G (Cath G); Table 4): 3220 M⁻¹ s⁻¹

O=C(C=CS(=O)(=O)c1ccccc1)OCN1C(=O)C(Cc2ccccc2)CS1(=O)=O (centres unmarked) [Compound 8C]
kinact/KI ([1]; Table 4): 380 M⁻¹ s⁻¹
kinact/KI (cathepsin G (Cath G); Table 4): 2770 M⁻¹ s⁻¹

O=C(CS(=O)(=O)c1ccccc1)OCN1C(=O)C(Cc2ccccc2)CS1(=O)=O (centres unmarked) [Compound 5C]
kinact/KI ([1]; Table 4): 340 M⁻¹ s⁻¹
kinact/KI (cathepsin G (Cath G); Table 4): 1050 M⁻¹ s⁻¹

O=C(C[S+]([O-])c1ccccc1)OCN1C(=O)C(Cc2ccccc2)CS1(=O)=O (centres unmarked) [Compound 4C]
kinact/KI ([1]; Table 4): 320 M⁻¹ s⁻¹
kinact/KI (cathepsin G (Cath G); Table 4): 770 M⁻¹ s⁻¹

O=C1C(Cc2ccccc2)CS(=O)(=O)N1C[S+]([O-])c1ccccc1 (centres unmarked) [Compound 13D]
kinact/KI (cathepsin G (Cath G); Table 5): 590 M⁻¹ s⁻¹

CC(C)C[C@H]1C(=O)N(CS(C)(=O)=O)S(=O)(=O)N1C [Compound 18E]
kinact/KI ([1]; Table 6): 4590 M⁻¹ s⁻¹

O=C(OCN1C(=O)C(Cc2ccccc2)CS1(=O)=O)[C@H]1CCCN1C(=O)OCc1ccccc1 (some centres unmarked) [Compound 7B]
kinact/KI ([1]; Table 3): 520 M⁻¹ s⁻¹
kinact/KI (cathepsin G (Cath G); Table 3): 360 M⁻¹ s⁻¹

CC(=O)Oc1ccccc1C(=O)OCN1C(=O)C(Cc2ccccc2)CS1(=O)=O (centres unmarked) [Compound 4]
kinact/KI ([1]; Table 1A): 830 M⁻¹ s⁻¹
kinact/KI (cathepsin G (Cath G); Table 1A): 3000 M⁻¹ s⁻¹

CCCCN1[C@@H](Cc2ccccc2)C(=O)N(CS(=O)(=O)c2ccccc2)S1(=O)=O [Compound 12E]
kinact/KI (cathepsin G (Cath G); Table 6): 320 M⁻¹ s⁻¹

O=C1[C@H](Cc2ccccc2)NS(=O)(=O)N1CS(=O)(=O)c1ccccc1 [Compound 10E]
kinact/KI (cathepsin G (Cath G); Table 6): 30 M⁻¹ s⁻¹

CS(=O)(=O)CN1C(=O)C(Cc2ccccc2)CS1(=O)=O (centres unmarked) [Compound 15D]
kinact/KI (cathepsin G (Cath G); Table 5): 2080 M⁻¹ s⁻¹

CC(C)C[C@H]1C(=O)N(CS(=O)(=O)c2ccccc2)S(=O)(=O)N1CC(=O)OC(C)(C)C [Compound 5E]
kinact/KI ([1]; Table 6): 2020 M⁻¹ s⁻¹

O=C1[C@H](Cc2ccccc2)N(S(=O)(=O)c2ccccc2)S(=O)(=O)N1CS(=O)(=O)c1ccccc1 [Compound 1E]
kinact/KI (cathepsin G (Cath G); Table 6): 830 M⁻¹ s⁻¹

O=C1[C@H](Cc2ccccc2)NS(=O)(=O)N1CCl [Compound 8E]
kinact/KI (cathepsin G (Cath G); Table 6): 30 M⁻¹ s⁻¹

CN1[C@@H](Cc2ccccc2)C(=O)N(CS(=O)(=O)c2ccccc2)S1(=O)=O [Compound 11E]
kinact/KI (cathepsin G (Cath G); Table 6): 130 M⁻¹ s⁻¹

O=C1[C@H](Cc2ccccc2)N(Cc2ccccc2)S(=O)(=O)N1CF [Compound 3A, (S)-4.5-Dibenzyl-2-fluoromethyl-3-oxo-1,2,5-thiadiazolidine 1.1-dioxide]
kinact/KI ([1]; Table 2): 930 M⁻¹ s⁻¹

O=C1[C@H](Cc2ccccc2)NS(=O)(=O)N1CF [Compound 1A, (S)-4-Benzyl-2-fluoromethyl-3-oxo-1,2,5-thiadiazolidine 1.1-dioxide]
kinact/KI (cathepsin G (Cath G); Table 2): 600 M⁻¹ s⁻¹

CC(C)C[C@H]1C(=O)N(CS(=O)(=O)c2ccccc2)S(=O)(=O)N1CC(=O)OCc1ccccc1 [Compound 4E]
kinact/KI ([1]; Table 6): 1710 M⁻¹ s⁻¹

CC(C)C[C@@H]1NS(=O)(=O)N(CS(=O)(=O)c2ccccc2)C1=O [Compound 2E]
kinact/KI ([1]; Table 6): 190 M⁻¹ s⁻¹

CC(C)(C)OC(=O)CN1[C@@H](Cc2ccccc2)C(=O)N(CS(=O)(=O)c2ccccc2)S1(=O)=O [Compound 14E]
kinact/KI (cathepsin G (Cath G); Table 6): 1130 M⁻¹ s⁻¹

O=C1C(Cc2ccccc2)CS(=O)(=O)N1CS(=O)(=O)c1ccccc1 (centres unmarked) [Compound 14D]
Cath G kobs/[I] (cathepsin G (Cath G); Table 5): 960 M⁻¹ s⁻¹

CCCCN1[C@@H](CC(C)C)C(=O)N(CS(=O)(=O)c2ccccc2)S1(=O)=O [Compound 16E]
kinact/KI ([1]; Table 6): 10600 M⁻¹ s⁻¹

CC(C)C[C@H]1C(=O)N(CS(=O)(=O)c2ccccc2)S(=O)(=O)N1Cc1ccccc1 [Compound 17E]
kinact/KI (cathepsin G (Cath G); Table 6): 440 M⁻¹ s⁻¹

O=C1[C@H](Cc2ccccc2)N(C/C=C/c2ccccc2)S(=O)(=O)N1CS(=O)(=O)c1ccccc1 [Compound 15E]
kinact/KI (cathepsin G (Cath G); Table 6): 760 M⁻¹ s⁻¹

From patent US5550139A, “Serine protease inhibitors” (The Wichita State University, priority 1994, dated 1996)
